Source: US9783536B2, “Nitrogen-containing heterocyclic compound or salt thereof” (FUJIFILM Corporation, priority 2013, dated 2017)
Counter-ions that a name gives are not always drawn. Like-named read-outs stand apart in the source and are kept apart here.

Assays:
[1] = molecular target: T1, GST fusion human ERK2 protein (Homo sapiens, UniProt P28482); assay: ERK2 enzyme assay (2); type: biochemical; conditions: read-out: ERK2 enzyme inhibitory activity (2)
T1 construct: purchased Carna Biosciences, Inc; host or cells: E. coli expression system
Method: In an ERK2 enzyme assay, GLUTATHIONE S-TRANSFERASE (GST) FUSION HUMAN ERK2 PROTEIN (manufactured by Carna Biosciences, Inc.), which was produced by using an E. coli expression system, was used.
12 μL of a reaction liquid (1.25 nmol/L ERK2, 100 mmol/L Hepes, 10 mmol/L MgCl2, 1.5 mmol/L DTT, 0.003% Brij35, pH 7.5) including ERK2 protein and a test compound having a predetermined concentration was allowed to stand at room temperature for 15 minutes. Then, 3 μL of a mixture liquid of FL-PEPTIDE8 (5-FAM-IPTSPITTTYFFFKKK-COOH) (manufactured by Caliper Life Sciences), which is substrate peptide, and ATP (manufactured by Sigma-Aldrich Co. LLC.) was added thereto such that the final concentrations thereof became 4.25 μmol/L and 1 mmol/L, respectively, and an enzyme reaction was performed by allowing to stand at 25° C. for 120 minutes.
After the reaction, the enzyme reaction was stopped by adding 30 μL of a reaction stopper liquid (100 mmol/L HEPES, 11.2 mmol/L EDTA, 5.6% Brij35, pH 7.5) including a 0.5% COATING REAGENT 8 (trade name, manufactured by Perkin Elmer Inc.) thereto. Then, phosphorylated peptide and non-phosphorylated peptide were separated using LABCHIP EZ READER (trade name, manufactured by Caliper Life Sciences), and the porportion of the phosphorylated peptide was quantified.
(§1) The inhibitory activities of the compounds were evaluated using IC50 (50% inhibitory concentration). The IC50 was calculated using XLFIT (trade name, manufactured by ID Business Solutions).

human PI3Kα protein = molecular target: T2, human PI3Kα protein (Homo sapiens, UniProt P42336); assay: PI3Kα enzyme assay (ADP-Glo); type: biochemical; conditions: read-out: PI3Kα enzyme inhibitory activity
T2 construct: purchased Carna Biosciences, Inc; host or cells: baculovirus expression system
Method: In a PI3Kα enzyme assay, a product (manufactured by Carna Biosciences, Inc.) obtained by biotinylating a human PI3Kα protein produced by using a baculovirus expression system was used. In addition, in the detection of enzyme activity, ADP-GLO KINASE ASSAY (trade name, manufactured by PROMEGA Corporation) was used.
10 μL of a reaction liquid (4.5 nmol/L PI3Kα, 40 mmol/L Tris-HCl, 20 mmol/L MgCl2, 0.1% BSA, pH 7.5) including the human PI3Kα protein and a test compound having a predetermined concentration was allowed to stand at room temperature for 15 minutes. Then, 5 μL of a mixture liquid of L-α-phosphatidylinositol 4,5-diphosphate (PIP2) (manufactured by Sigma-Aldrich Co. LLC.) and ATP (manufactured by Sigma-Aldrich Co. LLC.), which are substrates, was added thereto such that final concentrations thereof became 50 μmol/L and 100 μmol/L, respectively, and an enzyme reaction was performed by allowing to stand at 25° C. for 60 minutes.
After the reaction, the enzyme reaction was stopped by adding 15 μL of an ADP-GLO REAGENT (trade name, manufactured by PROMEGA Corporation) thereto and allowing to stand at room temperature for 60 minutes. Then, 30 μL of a KINASE DETECTION REAGENT (trade name, manufactured by PROMEGA Corporation) was added thereto, followed by allowing to stand at room temperature for 40 minutes, and ADP produced by the enzyme reaction was quantified by emission intensity.
ENVISION (trade name, manufactured by Perkin Elmer Inc.) was used for the measurement of the emission intensity.
as §1

T2 sequence (P42336 whole entry): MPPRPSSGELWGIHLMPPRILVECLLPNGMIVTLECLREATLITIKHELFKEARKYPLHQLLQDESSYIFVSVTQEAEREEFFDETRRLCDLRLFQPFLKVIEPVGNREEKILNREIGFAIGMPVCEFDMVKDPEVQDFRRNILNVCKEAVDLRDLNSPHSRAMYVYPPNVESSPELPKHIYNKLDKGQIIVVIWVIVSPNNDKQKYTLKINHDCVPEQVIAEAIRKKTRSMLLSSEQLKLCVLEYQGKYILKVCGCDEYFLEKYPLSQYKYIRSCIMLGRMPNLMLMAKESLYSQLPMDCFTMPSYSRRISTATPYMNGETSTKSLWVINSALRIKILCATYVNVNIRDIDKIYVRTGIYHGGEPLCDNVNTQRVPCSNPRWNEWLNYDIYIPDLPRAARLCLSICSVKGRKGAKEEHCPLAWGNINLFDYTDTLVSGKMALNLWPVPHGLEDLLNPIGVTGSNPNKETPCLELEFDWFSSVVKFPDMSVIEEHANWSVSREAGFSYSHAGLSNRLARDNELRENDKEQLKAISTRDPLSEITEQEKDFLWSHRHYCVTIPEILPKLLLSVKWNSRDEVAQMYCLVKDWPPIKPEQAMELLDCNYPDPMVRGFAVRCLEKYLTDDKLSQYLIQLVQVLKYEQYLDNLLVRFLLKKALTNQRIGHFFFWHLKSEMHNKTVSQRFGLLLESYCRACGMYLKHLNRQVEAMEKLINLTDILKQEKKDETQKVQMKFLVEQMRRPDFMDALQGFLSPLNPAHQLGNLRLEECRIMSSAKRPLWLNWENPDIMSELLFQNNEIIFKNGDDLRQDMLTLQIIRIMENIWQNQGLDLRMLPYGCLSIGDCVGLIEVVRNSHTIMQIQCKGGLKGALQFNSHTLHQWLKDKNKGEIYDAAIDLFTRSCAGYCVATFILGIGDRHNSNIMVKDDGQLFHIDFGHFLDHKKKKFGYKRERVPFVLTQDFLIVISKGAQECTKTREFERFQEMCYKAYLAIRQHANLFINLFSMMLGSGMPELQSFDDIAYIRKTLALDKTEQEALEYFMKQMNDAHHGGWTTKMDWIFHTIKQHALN
T2 sequence (P27986 whole entry partner): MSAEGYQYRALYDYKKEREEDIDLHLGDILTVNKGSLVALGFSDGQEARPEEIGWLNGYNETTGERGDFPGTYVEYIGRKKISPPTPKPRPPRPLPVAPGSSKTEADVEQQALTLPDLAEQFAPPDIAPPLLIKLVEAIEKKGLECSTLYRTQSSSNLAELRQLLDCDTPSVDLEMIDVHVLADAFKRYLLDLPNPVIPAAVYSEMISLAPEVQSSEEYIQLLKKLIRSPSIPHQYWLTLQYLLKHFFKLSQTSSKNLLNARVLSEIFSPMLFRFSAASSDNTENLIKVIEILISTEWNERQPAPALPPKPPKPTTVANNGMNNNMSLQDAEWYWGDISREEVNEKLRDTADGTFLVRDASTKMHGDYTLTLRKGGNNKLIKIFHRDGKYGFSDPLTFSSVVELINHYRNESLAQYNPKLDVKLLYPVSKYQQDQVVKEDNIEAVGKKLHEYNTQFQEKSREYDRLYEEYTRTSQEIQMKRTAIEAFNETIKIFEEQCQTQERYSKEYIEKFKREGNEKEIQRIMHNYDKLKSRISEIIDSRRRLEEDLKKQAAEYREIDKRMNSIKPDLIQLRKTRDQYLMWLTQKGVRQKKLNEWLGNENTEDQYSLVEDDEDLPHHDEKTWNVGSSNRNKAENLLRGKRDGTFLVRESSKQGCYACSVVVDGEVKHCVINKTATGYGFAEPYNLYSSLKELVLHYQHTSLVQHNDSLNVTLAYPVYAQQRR
T1 sequence (P28482 whole entry, the tested form may be a part): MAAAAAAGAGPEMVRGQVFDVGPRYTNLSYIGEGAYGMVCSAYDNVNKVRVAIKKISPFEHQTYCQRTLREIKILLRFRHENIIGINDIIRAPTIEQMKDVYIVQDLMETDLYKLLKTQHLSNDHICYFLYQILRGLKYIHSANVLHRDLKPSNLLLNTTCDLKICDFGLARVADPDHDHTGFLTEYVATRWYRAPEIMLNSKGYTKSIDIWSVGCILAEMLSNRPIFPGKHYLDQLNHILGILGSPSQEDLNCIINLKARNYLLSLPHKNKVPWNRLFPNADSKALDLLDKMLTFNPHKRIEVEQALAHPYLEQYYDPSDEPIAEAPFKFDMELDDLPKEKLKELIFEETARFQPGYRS

| SMILES | IC50 ([1]; ERK2 enzyme assay (2)) [nM] | IC50 (human PI3Kα protein) [nM] | IC50 [1] [nM] |
| --- | --- | --- | --- |
| CC(C)c1cnnc(Nc2ccc3ncc(-c4cnn(CCCN5CC(O)(CCO)C5)c4)cc3n2)c1 [Example 0702] | < 1000 | < 1000 |  |
| CC(C)c1cnnc(Nc2ccc3ncc(-c4cnn(CCN5CC6(COC6)C5)c4)cc3n2)c1 [Example 0619, 7-(1-(2-(2-Oxa-6-azaspiro[3.3]heptan-6-yl)ethyl)-1H-pyrazol-4-yl)-N-(5-isopropylpyridazin-3-yl)-1,5-naphthyridine-2-amine] | < 1000 | < 1000 |  |
| CC(C)c1cnnc(Nc2ccc3ncc(-c4cn(C)nc4NC4CCOC4)cc3n2)c1 (stereo not drawn) [Example 0940] |  | < 1000 | < 1000 |
| CN(C)c1cnnc(Nc2ccc3ncc(-c4cnn(C)c4)cc3n2)c1 [Example 0518] | < 1000 | < 1000 |  |
| CCn1cc(-c2cnc3ccc(Nc4cc(C(C)C)cnn4)nc3c2)ccc1=O [Example 0596, 1-ethyl-5-(6-((5-isopropylpyridazin-3-yl)amino)-1,5-naphthyridin-3-yl)pyridin-2(1H)-one] | < 1000 | < 1000 |  |
| CC(C)c1cnnc(Nc2ccc3ncc(-c4cn(C)nc4Oc4ccccc4)cc3n2)c1 [Example 0820] | < 1000 | < 1000 |  |
| CC(C)c1cnnc(Nc2ccc3ncc(-c4cnn(CCN5CCCCC5)c4)cc3n2)c1 [Example 0609, N-(5-isopropylpyridazin-3-yl)-7-(1-(2-(piperidin-1-yl)ethyl)-1H-pyrazol-4-yl)-1,5-naphthyridine-2-amine] | < 1000 | < 1000 |  |
| CC(C)c1cnnc(Nc2ccc3ncc(-c4cncnc4)cc3n2)c1 [Example 0604] | < 1000 | 10000 to 50000 |  |
| CC(C)c1cnnc(Nc2ccc3ncc(N)cc3n2)c1 [Example 0623, N^2-(5-isopropylpyridazin-3-yl)-1,5-naphthyridine-2,7-diamine] | 1000 to 10000 | 1000 to 10000 |  |
| CC(C)c1cnnc(Nc2ccc3ncc(-c4ccn[nH]4)cc3n2)c1 [Example 0622, N-(5-isopropylpyridazin-3-yl)-7-(1H-pyrazol-5-yl)-1,5-naphthyridine-2-amine] | < 1000 | < 1000 |  |
| CC(C)c1cnnc(Nc2ccc3ncc(-n4cnc(CCN)c4)cc3n2)c1 [Example 0506, Hydrochloric acid salt of 7-(4-(2-aminoethyl)-1H-imidazol-1-yl)-N-(5-isopropylpyridazin-3-yl)-1,5-naphthyridine-2-amine] | < 1000 | 1000 to 10000 |  |
| CC(C)c1cnnc(Nc2ccc3ncc(-c4cnn(C)c4)c(N4CCOCC4)c3n2)c1 [Example 0955, N-(5-isopropylpyridazin-3-yl)-7-(1-methyl-1H-pyrazol-4-yl)-8-morpholino-1,5-naphthyridine-2-amine] |  | < 1000 | < 1000 |
| CC(C)c1cnnc(Nc2ccc3ncc(N4CCN(C)CC4)cc3n2)c1 [Example 0842, N-(5-isopropylpyridazin-3-yl)-7-(4-methylpiperazin-1-yl)-1,5-naphthyridine-2-amine] | 1000 to 10000 | 1000 to 10000 |  |
| CC(C)c1cnnc(Nc2ccc3ncc(NC(=O)COCc4ccccc4)cc3n2)c1 [Example 0654, 2-(benzyloxy)-N-(6-((5-isopropylpyridazin-3-yl)amino)-1,5-naphthyridin-3-yl)acetamide] | 1000 to 10000 | < 1000 |  |
| CC(C)c1cnnc(Nc2ccc3ncc(-c4cn(C)nc4N)cc3n2)c1 [Example 0636, 7-(3-amino-1-methyl-1H-pyrazol-4-yl)-N-(5-isopropylpyridazin-3-yl)-1,5-naphthyridine-2-amine] | < 1000 | < 1000 |  |
| CC(=O)Nc1cc(-c2cnc3ccc(Nc4cc(C(C)C)cnn4)nc3c2)ccn1 [Example 0421, N-(4-(6-((5-isopropylpyridazin-3-yl)amino)-1,5-naphthyridin-3-yl)pyridin-2-yl)acetamide] | < 1000 | < 1000 |  |
| CC(C)c1cnnc(Nc2ccc3ncc(-c4cnn(CCCN5CC[C@@H](F)C5)c4)cc3n2)c1 [Example 0429] | < 1000 | < 1000 |  |
| COC(CN1CC(F)C1)Cn1cc(-c2cnc3ccc(Nc4cc(C(C)C)cnn4)nc3c2)cn1 (stereo not drawn) [Example 0815, 7-(1-(3-(3-Fluoroazetidin-1-yl)-2-methoxypropyl)-1H-pyrazol-4-yl)-N-(5-isopropylpyridazin-3-yl)-1,5-naphthyridine-2-amine] | < 1000 | < 1000 |  |

| SMILES | IC50 ([1]; ERK2 enzyme assay (2)) [nM] | IC50 (human PI3Kα protein) [nM] | IC50 [1] [nM] |
| --- | --- | --- | --- |
| CC(C)c1cnnc(Nc2ccc3ncc(-c4cnn(Cc5cscn5)c4)cc3n2)c1 [Example 0449] | < 1000 | < 1000 |  |
| CC(C)c1cnnc(Nc2ccc3ncc(N4CC(OCCF)C4)cc3n2)c1 [Example 0864] | < 1000 | < 1000 |  |
| CC(C)c1cnnc(Nc2ccc3ncc(N4C[C@@H](C)O[C@@H](C)C4)cc3n2)c1 [Example 0873] | < 1000 | < 1000 |  |
| CC(C)c1cnnc(Nc2ccc3ncc(-c4cn(C)nc4N(C)C4COC4)cc3n2)c1 [Example 0943] |  | < 1000 | < 1000 |
| Cc1ccc(-c2nn(C)cc2-c2cnc3ccc(Nc4cc(C(C)C)cnn4)nc3c2)cn1 [Example 0734] | < 1000 | < 1000 |  |
| CC(C)c1cnnc(Nc2ccc3ncc(C(=O)Nc4ccncc4)cc3n2)c1 [Example 0669] | 1000 to 10000 | 1000 to 10000 |  |
| C=C(C)c1cnnc(Nc2ccc3ncc(-c4cn(C)nc4C)cc3n2)c1 [Example 0785] | < 1000 | < 1000 |  |
| CC(C)c1cnnc(Nc2ccc3ncc(-c4cn(C)nc4CN4CCN(c5cccnc5)CC4)cc3n2)c1 [Example 0910] |  | < 1000 | < 1000 |
| Cc1nc(C)c(-c2cnc3ccc(Nc4cc(C(C)C)cnn4)nc3c2)s1 [Example 0574, 7-(2,4-dimethylthiazol-5-yl)-N-(5-isopropylpyridazin-3-yl)-1,5-naphthyridine-2-amine] | < 1000 | 1000 to 10000 |  |
| CC(C)c1cnnc(Nc2ccc3ncc(-c4cnn(CCCN5C[C@@H](C)N(C(=O)N(C)C)[C@@H](C)C5)c4)cc3n2)c1 [Example 0436] | < 1000 | < 1000 |  |
| CC(=O)N1CCCC(Cn2cc(-c3cnc4ccc(Nc5cc(C(C)C)cnn5)nc4c3)cn2)C1 (stereo not drawn) [Example 0548] | < 1000 | < 1000 |  |
| CCOC(=O)N1CCN(CCCn2cc(-c3cnc4ccc(Nc5cc(C(C)C)cnn5)nc4c3)cn2)CC1 [Example 0437, Ethyl 4-(3-(4-(6-((5-isopropylpyridazin-3-yl)amino)-1,5-naphthyridin-3-yl)-1H-pyrazol-1-yl)propyl)piperazine-1-carboxylate] | < 1000 | < 1000 |  |
| CCn1cc(-c2cnc3ccc(Nc4cc(C(C)C)cnn4)nc3c2)c(-c2ccncc2)n1 [Example 0771] | < 1000 | < 1000 |  |
| CC(C)c1cnnc(Nc2ccc3ncc(-c4scnc4-c4cccnc4)cc3n2)c1 [Example 0578] | < 1000 | < 1000 |  |
| CNc1cc(-c2cnc3ccc(Nc4cc(C(C)C)cnn4)nc3c2)ccn1 [Example 0423, N-(5-isopropylpyridazin-3-yl)-7-(2-(methylamino)pyridin-4-yl)-1,5-naphthyridine-2-amine hydrochloride] | < 1000 | < 1000 |  |
| CC(C)c1cnnc(Nc2ccc3ncc(-c4cnn(CC(F)(F)CN5CCOCC5)c4)cc3n2)c1 [Example 0731] | < 1000 | < 1000 |  |
| CC(C)c1cnnc(Nc2ccc3ncc(-c4cn(C)nc4Nc4ccccc4)cc3n2)c1 [Example 0829] | < 1000 | < 1000 |  |
| COCCOc1cc(-c2nn(C)cc2-c2cnc3ccc(Nc4cc(C(C)C)cnn4)nc3c2)ccn1 [Example 0750, N-(5-isopropylpyridazin-3-yl)-7-(3-(2-(2-methoxyethoxyl)pyridin-4-yl)-1-methyl-1H-pyrazol-4-yl)-1,5-naphthyridine-2-amine] | < 1000 | < 1000 |  |
